From patent publication US11298362B2, “Combination therapy with Notch and CDK4/6 inhibitors for the treatment of cancer” (Eli Lilly and Company, priority 2016, dated 2022)

Columns and labels:
[1] = tested on: pRB (phospho-ser780-Rb), total RB, Topo IIa and pHH3 in H2122 cells; experiment: Cell cycle biomarker expression by immunoblotting in H2122 cells; type: cell-based, human
Procedure: Time Course Study: NCI-H441 and NCI-H2122 NSCLC cell lines are treated for 4 or 24 hours with 1 μM of Compound A and harvested to evaluate effects on cell cycle biomarker expression which includes the cell cycle inhibitors p21 and p27 as well as markers for cell cycle progression including phospho-histone H3 (pHH3) (a marker for M-phase), Topo 2A (a marker for S-phase), phospho_ser780-RB (a marker for G1 and, as well as, for CDK4/6 inhibition) and cyclin Dl. […] […] Cells are harvested after 24 hours of treatment and evaluated for expression of various cell cycle biomarkers by immunoblotting. […] RB is the direct kinase target of CDK4/6 so inhibition of pRB provides a direct measure of CDK4/6 inhibition. The inhibition of Topo IIA and pHH3 are indicative of the inhibition of cell cycle progression through S and M phases of the cell cycle, respectively. […] The same study is carried out in the H441 cell line. […] RB is the direct kinase target of CDK4/6 so inhibition of pRB provides a direct measure of CDK4/6 inhibition. The inhibition of Topo IIA and pHH3 are indicative of the inhibition of cell cycle progression through S and M phases of the cell cycle, respectively.

NCI-H2122 xenograft = experiment: Human NCI-H2122 xenograft tumor growth in athymic nude mice; type: in vivo
Procedure: (§1) NCI-H2122 is a human adenocarcinoma non-small cell lung cancer cell line (ATCC® as CRL-5985). The cells are grown in culture media at 37° C. in 5% CO2 with humidity in the atmosphere. Cell culture media for NCI-H2122 is RPMI-1640 with 2 mM L-glutamine, 10 mM 2-[4-(2-hydroxyethyl)piperazin-1-yl]ethanesulfonic acid (HEPES), 1 mM sodium pyruvate, 4500 mg/L glucose, 1500 mg/L sodium bicarbonate, and 10% fetal bovine serum (FBS).
To evaluate in vivo efficacy 5×10^6 NCI-H2122 cells in a 1:1 Matrigel® mix (0.2 mL volume) are implanted by subcutaneous injection in the hind leg of 6-8 weeks of age athymic nude female mice (Harlan Laboratories). Just before implantation animals are irradiated ([…]). Mice are fed ad libitum on normal chow. Treatment is initiated with oral administration (gavage) of Compound A in 1% sodium carboxymethylcellulose (Na-CMC) in 0.25% Tween®-80, or Compound B in 1% hydroxyethyl cellulose (HEC) in phosphate buffer pH 2.0 or their respective vehicle in 0.2 mL volume when tumor size reaches to 150±50 mm^3. Compound A is administered at 5 or 8 mg/kg on a Wednesday, Friday, and Monday schedule (TIW) for 2 weeks and Compound B is administered at 25 or 50 mg/kg daily for 14 days.
Tumor growth and body weight are monitored over time to evaluate efficacy and signs of toxicity. Bidimensional measurements of tumors are performed twice a week and tumor volumes are calculated based on the following formula: (Tumor Volume)=[(L)×(W2)×(Π/6)] where L is mid-axis length and W is mid-axis width. Tumor volume data are transformed to a log scale to equalize variance across time and treatment groups. The log volume data are analyzed with a two-way repeated measures analysis of variance by time and treatment using the MIXED™ procedures in SAS™ software (version 8.2). The correlation model for the repeated measures is spatial power. Test Groups are: • 1: 1% HEC in 25 mM Phosphate Buffer, pH 2, QD×14, PO/1% CMC/0.25% Tween 80/0.05% Antifoam, /W-F-M×2, PO • 3: Compound B, 50 mg/kg, QD×14, PO • 4: Compound A, 5 mg/kg, W-F-M×2, PO • 5: Compound A, 8 mg/kg, W-F-M×2, PO • 7: Compound B, 50 mg/kg, QD×14, PO/Compound A, 5 mg/kg, W-F-M×2, PO • 8: Compound B, 50 mg/kg, QD×14, PO/Compound A, 8 mg/kg, W-F-M×2, PO Group 7 and a Group 9 were combined and labelled group 7, because they received the same treatment regimen contrary to testing procedures. […] Group 2 is not shown as it was Compound B monotreatment at the same treatment regimen as Compound B in Group 6 combination treatment.
Using the repeated measures analysis previously described, a contrast statement is used to test for an interaction effect on study day 27, using the two specific treatments that were combined (Group 7).

NCI-H441 = experiment: Cell growth inhibition by CellTiter-Glo assay, NCI-H441; type: cell-based; conditions: Homo sapiens, Compound B alone, 48 hours
Procedure: (§2) The non-small cell lung cancer (NSCLC) lines NCI-H441 (ATCC® as HTB-174) and NCI-H2122 (ATCC® as CRL-5985) are grown in RPMI-1640 medium supplemented with 2 mM L-glutamine, 10 mM HEPS, 1 mM sodium pyruvate, 4500 mg/L glucose, 1500 mg/L sodium bicarbonate, and 10% fetal bovine serum (FBS) at 37° C. in 5% CO2 with humidity in the atmosphere. The cells are subcultured according to ATCC procedures and treated with increasing concentrations of abemaciclib mesylate (Compound B) either in the presence or absence of 1 μM of Compound A. The growth of the cells is quantified 48 hours later by a CellTiter-Glo assay (Promega). Growth inhibition at each concentration is calculated and IC50 values are determined from the 4-parameter concentration-response curves.

NCI-H2122 = experiment: Cell growth inhibition by CellTiter-Glo assay, NCI-H2122; type: cell-based; conditions: Homo sapiens, Compound B alone, 48 hours
Procedure: as §2, §1

[2] = Compound B 0.05-0.8 μM with or without 1 μM Compound A added 1 day before Compound B, 24 hours after addition
[3] = Compound B 0.05-0.8 μM with or without 1 μM Compound A added simultaneously, 24 hours

## C[C@H](NC(=O)CCC(F)(F)F)C(=O)N[C@@H]1C(=O)N(CCO)c2ncccc2-c2ccccc21 [Compound A, 4,4,4-trifluoro-N-[(1S)-2-[[(7S)-5-(2-hydroxyethyl)-6-oxo-7H-pyrido[2,3-d][3]benzazepin-7-yl]amino]-1-methyl-2-oxo-ethyl]butanamide]
[1]; 1 μM Compound A, 24 hours of treatment
  cell cycle biomarker expression, time course study: Marginal reductions of pHH3, Topo2A, pRB and total RB
[1]; [2]
  cell cycle biomarker expression, concentration-response study: no effect on the expression of these biomarkers
[1]; [3]
  cell cycle biomarker expression, concentration-response study: no effect on the expression of these biomarkers
NCI-H2122 xenograft; Group 04: Compound A 5 mg/kg W-F-M×2 PO, study day 6
  Geometric Mean tumor volume: 110.18 mm^3
NCI-H2122 xenograft; Group 04: Compound A 5 mg/kg W-F-M×2 PO, study day 9
  Geometric Mean tumor volume: 129.04 mm^3
NCI-H2122 xenograft; Group 04: Compound A 5 mg/kg W-F-M×2 PO, study day 13
  Geometric Mean tumor volume: 189.14 mm^3
NCI-H2122 xenograft; Group 04: Compound A 5 mg/kg W-F-M×2 PO, study day 16
  Geometric Mean tumor volume: 289.03 mm^3
NCI-H2122 xenograft; Group 04: Compound A 5 mg/kg W-F-M×2 PO, study day 20
  Geometric Mean tumor volume: 447.05 mm^3
NCI-H2122 xenograft; Group 04: Compound A 5 mg/kg W-F-M×2 PO, study day 23
  Geometric Mean tumor volume: 585.69 mm^3
NCI-H2122 xenograft; Group 04: Compound A 5 mg/kg W-F-M×2 PO, study day 27
  Geometric Mean tumor volume: 761.24 mm^3
NCI-H2122 xenograft; Group 05: Compound A 8 mg/kg W-F-M×2 PO, study day 6
  Geometric Mean tumor volume: 127.60 mm^3
NCI-H2122 xenograft; Group 05: Compound A 8 mg/kg W-F-M×2 PO, study day 9
  Geometric Mean tumor volume: 165.23 mm^3
NCI-H2122 xenograft; Group 05: Compound A 8 mg/kg W-F-M×2 PO, study day 13
  Geometric Mean tumor volume: 199.00 mm^3
NCI-H2122 xenograft; Group 05: Compound A 8 mg/kg W-F-M×2 PO, study day 16
  Geometric Mean tumor volume: 301.93 mm^3
NCI-H2122 xenograft; Group 05: Compound A 8 mg/kg W-F-M×2 PO, study day 20
  Geometric Mean tumor volume: 492.37 mm^3
NCI-H2122 xenograft; Group 05: Compound A 8 mg/kg W-F-M×2 PO, study day 23
  Geometric Mean tumor volume: 481.31 mm^3
NCI-H2122 xenograft; Group 05: Compound A 8 mg/kg W-F-M×2 PO, study day 27
  Geometric Mean tumor volume: 570.39 mm^3

## CCN1CCN(Cc2ccc(Nc3ncc(F)c(-c4cc(F)c5nc(C)n(C(C)C)c5c4)n3)nc2)CC1 [Compound B, N-[5-(4-ethyl-piperazin-1-ylmethyl)-pyridin-2-yl]-[5-fluoro-4-(7-fluoro-3-isopropyl-2-methyl-3H-benzoimidazol-5-yl)-pyrimidin-2-yl]-amine, reference compound]
NCI-H441
  IC50: 970 nM
NCI-H2122
  IC50: 450 nM
[1]; [2]
  cell cycle biomarker expression, concentration-response study: concentration-dependent inhibition of pRB (phospho-ser780-Rb), total RB, Topo IIa and pHH3
[1]; [3]
  cell cycle biomarker expression, concentration-response study: concentration-dependent inhibition of pRB (phospho-ser780-Rb), total RB, Topo IIa and pHH3
NCI-H2122 xenograft; Group 03: Compound B 50 mg/kg QD×14 PO, study day 6
  Geometric Mean tumor volume: 136.94 mm^3
NCI-H2122 xenograft; Group 03: Compound B 50 mg/kg QD×14 PO, study day 9
  Geometric Mean tumor volume: 188.32 mm^3
NCI-H2122 xenograft; Group 03: Compound B 50 mg/kg QD×14 PO, study day 13
  Geometric Mean tumor volume: 191.75 mm^3
NCI-H2122 xenograft; Group 03: Compound B 50 mg/kg QD×14 PO, study day 16
  Geometric Mean tumor volume: 321.32 mm^3
NCI-H2122 xenograft; Group 03: Compound B 50 mg/kg QD×14 PO, study day 20
  Geometric Mean tumor volume: 376.59 mm^3
NCI-H2122 xenograft; Group 03: Compound B 50 mg/kg QD×14 PO, study day 23
  Geometric Mean tumor volume: 489.72 mm^3
NCI-H2122 xenograft; Group 03: Compound B 50 mg/kg QD×14 PO, study day 27
  Geometric Mean tumor volume: 491.92 mm^3
